In ChEMBL document CHEMBL1201862, “PubChem BioAssay data set” (2004):
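48-hour exposure; five concentrations; linearly interpolated endpoints. The concentration for 50% growth inhibition is given as GI50.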 The source made the active and inactive calls. Cut-off read from the data, not from the text of the source: active = GI50 up to about 1.1 µM and inactive = higher.

Tests used:
Assay in all cases: DTP human tumour cell line panel, 48 h
786-0 = system: 786-0
A498 = system: A498
A549 = system: A549
ACHN = system: ACHN
BT-549 = system: BT-549
COLO 205 = system: COLO 205
HL-60 = system: HL-60
IGROV-1 = system: IGROV-1
M14 = system: M14
NCI-H226 = system: NCI-H226
NCI-H23 = system: NCI-H23
OVCAR-4 = system: OVCAR-4
OVCAR-5 = system: OVCAR-5
SK-MEL-2 = system: SK-MEL-2
SN12C = system: SN12C
UACC-257 = system: UACC-257
UO-31 = system: UO-31
RXF 393 = system: RXF 393
SNB-75 = system: SNB-75
HOP-92 = system: HOP-92

SMILES | GI50 (786-0) | GI50 (A498) | GI50 (A549) | GI50 (ACHN) | GI50 (BT-549) | GI50 (COLO 205) | GI50 (HL-60) | GI50 (IGROV-1) | GI50 (M14) | GI50 (NCI-H226) | GI50 (NCI-H23) | GI50 (OVCAR-4) | GI50 (OVCAR-5) | GI50 (SK-MEL-2) | GI50 (SN12C) | GI50 (UACC-257) | GI50 (UO-31) | GI50 (RXF 393) | GI50 (SNB-75) | GI50 (HOP-92)
CN(CCN1CCCC1)C1CCc2cc(Cl)c(Cl)cc2C1 (configuration not stated) | 14.7 µM (inactive) | 13.2 µM (inactive) | 16.6 µM (inactive) | 16.9 µM (inactive) | 14.9 µM (inactive) | 3.6 µM (inactive) | 12.6 µM (inactive) | 15.6 µM (inactive) | 15 µM (inactive) | 16.2 µM (inactive) | 15 µM (inactive) | 21.4 µM (inactive) | 15.3 µM (inactive) | 17.9 µM (inactive) | 15.5 µM (inactive) | 16.4 µM (inactive) | 13.2 µM (inactive) |  |  | 
COC(=O)C1=C(OC)C(=P2(c3ccccc3)CC(c3ccccc3)=C2c2ccccc2)C(C(=O)OC)=C1C(=O)OC (configuration not stated) | 27.4 µM (inactive) |  | 26.4 µM (inactive) | 49.8 µM (inactive) | > 76.6 µM (inactive) | 18.8 µM (inactive) | 0.968 µM (active) | 22.2 µM (inactive) | 43.5 µM (inactive) | 68.9 µM (inactive) | 33.8 µM (inactive) | 19.5 µM (inactive) | > 100 µM (inactive) | 54.5 µM (inactive) | 31.8 µM (inactive) | > 71.1 µM (inactive) | 14.9 µM (inactive) | 18.1 µM (inactive) | 41.6 µM (inactive) | 
CN(CCc1ccccn1)c1nc(=[N+](C)C)ss1 | > 100 µM (inactive) | > 100 µM (inactive) | 35.3 µM (inactive) | > 100 µM (inactive) |  | > 100 µM (inactive) | > 100 µM (inactive) | > 100 µM (inactive) | > 100 µM (inactive) |  | > 100 µM (inactive) | > 100 µM (inactive) | > 100 µM (inactive) | > 100 µM (inactive) | > 100 µM (inactive) | > 100 µM (inactive) | > 100 µM (inactive) | > 100 µM (inactive) | > 100 µM (inactive) | > 100 µM (inactive)
Cc1cn([C@H]2C[C@H](O)[C@@H](CO)O2)c(=O)nc1N | > 100 µM (inactive) | > 100 µM (inactive) | > 100 µM (inactive) | > 100 µM (inactive) | > 100 µM (inactive) | > 100 µM (inactive) | > 100 µM (inactive) | > 100 µM (inactive) | > 100 µM (inactive) | > 100 µM (inactive) | > 100 µM (inactive) | > 100 µM (inactive) | > 100 µM (inactive) | > 100 µM (inactive) | > 100 µM (inactive) | > 100 µM (inactive) | > 100 µM (inactive) |  | > 100 µM (inactive) | 
O=C(NNC(=S)NCc1ccccc1)c1csc(NC(=S)NC2CCCCC2)n1 | 45.8 µM (inactive) | 42 µM (inactive) | 37.2 µM (inactive) | 38.2 µM (inactive) | 36.9 µM (inactive) | 18.2 µM (inactive) | > 100 µM (inactive) | 31.3 µM (inactive) | 32.6 µM (inactive) | 5.93 µM (inactive) | 43 µM (inactive) |  | > 100 µM (inactive) | 27 µM (inactive) | 34.4 µM (inactive) | 18.6 µM (inactive) | 21.8 µM (inactive) |  |  | 
CC(C)(C)C1CCC2c3c([nH]c4ccccc34)C3C(=O)N(c4ccc5c(c4)C(=O)c4ccccc4C5=O)C(=O)C3C2C1 (configuration not stated) | > 100 µM (inactive) | > 100 µM (inactive) | > 100 µM (inactive) | > 100 µM (inactive) | > 100 µM (inactive) | > 100 µM (inactive) | > 100 µM (inactive) | > 100 µM (inactive) | > 100 µM (inactive) | > 100 µM (inactive) | > 100 µM (inactive) | > 100 µM (inactive) | > 100 µM (inactive) | > 100 µM (inactive) | > 100 µM (inactive) | > 100 µM (inactive) |  | > 100 µM (inactive) |  | 
COc1cc2ccnc([C@@H](OC(=O)c3ccccc3)c3ccc(OC)c(OC)c3OC)c2cc1OC | 35.6 µM (inactive) | 36.1 µM (inactive) | 47.1 µM (inactive) | 32.7 µM (inactive) |  | 48.5 µM (inactive) | 41.8 µM (inactive) | > 100 µM (inactive) | 78.3 µM (inactive) | 35.5 µM (inactive) | 40.6 µM (inactive) | 31 µM (inactive) | 23.8 µM (inactive) | 60.4 µM (inactive) | 51.6 µM (inactive) | > 100 µM (inactive) | 18.9 µM (inactive) | 26.9 µM (inactive) | 21.5 µM (inactive) | 23.3 µM (inactive)
Cc1cc(OC(=O)Nc2cccc3ccccc23)c(C(C)C)cc1C(=S)Nc1ccccc1 | 23.4 µM (inactive) |  | 21.8 µM (inactive) | 24.2 µM (inactive) | 12.1 µM (inactive) | 19.6 µM (inactive) | 2.42 µM (inactive) | 13.6 µM (inactive) | 18.6 µM (inactive) |  | 15.7 µM (inactive) | 11 µM (inactive) | 20.7 µM (inactive) | 13.7 µM (inactive) |  | 18.7 µM (inactive) | 17.6 µM (inactive) |  |  | 
